For assay [1], the system named is huntingtin (HTT) inclusion bodies. The assay is described as follows: Huntingtin inclusion bodies in striatum and cortex by immunohistochemistry and Western blotting. The format is in vivo. The following applies: N171-82Q Tg mice, about 50 mg/kg body wt/day via gavage, two months. As to the method:
Deposition of huntingtin (HTT) inclusion bodies is a pathological hallmark of Huntington's disease. This pathology is based on an expansion of CAG repeats in exon 1 of the huntingtin gene on chromosome 4 that generates a mutant huntingtin protein leading to abnormal HTT aggregates.
Briefly, three-month old transgenic mice were treated with GTB (about 50 mg/kg body wt/day) via gavage. Control Huntington's disease mice received only 100 μl 0.5% methylcellulose as vehicle. After two months of treatment, huntingtin inclusion bodies (HTT) were monitored in brain sections (striatal—FIG. 2A, cortical—FIG. 2B) by immunohistochemistry. Further, HTT positive (“(+)ve”) cells were counted in two sections (striatal—FIG. 2C, cortical—FIG. 2D) of each of six mice per group.
FIG. 2A and 2B show the results from immunohistochemistry, which indicate that administration of GTB reduces the number of HTT inclusion bodies in striatum and cortex. FIGS. 2C and 2D show the number of HTT (+ve) cells in striatum and cortex of GTB treated and untreated mice and indicate a reduction in the number of HTT in treated mice.
This was also confirmed by Western blotting. By Western blotting, the inventor could detect 348 kDa band of aggregated HTT in the cortex that was inhibited by oral GTB treatment (FIG. 2E-2F).
(In general: Immunoblotting shows a protein as a band on a membrane.)

Assay [2] concerns Huntington transgenic (N171-82Q) mice. As to the kind of experiment: Locomotor activities after glyceryl tribenzoate nebulization in Huntington transgenic mice. The class given is in vivo. Conditions: nebulization about 2 and about 5 mg/kg body wt/day, six weeks. From the text: Since many features of Huntington's disease are modeled in N171-82Q transgenic mice, the effects of glyceryl tribenzoate nebulization on locomotor activities were examined in N171-82Q mice. A Buxco® Inhalation Tower All-In-One Controller was used to nebulize the glyceryl tribenzoate. A whole-body chamber was fitted with aeroneb ultrasonic nebulizers supplied with air from a Buxco® bias flow pump. Huntington transgenic (N171-82Q) mice were allowed to nebulize glyceryl tribenzoate at doses of about 2 and about 5 mg/kg body wt/day (solubilized in a volume of 100 μl saline/mouse) for 3 min. Briefly, three-month old transgenic mice were treated with different doses (about 2 and about 5 mg/kg body wt/d) of glyceryl tribenzoate solubilized in about 100 μl saline via nebulization. Control Huntington's disease mice received only 100 μl saline as vehicle. After six weeks of treatment, locomotor activities were monitored. Data are mean+SEM of three mice per group.
Velocity refers to the speed at which the mouse walks. Total distance refers to the distance covered by the mouse in a certain period of time. Moving frequency refers to how much a mouse moves around in a given time period and cumulative duration refers to total duration spent at the center.

Assay [3] deals with microglial activation. As to the kind of experiment: Microglial activation in striatum (Iba-1 DAB staining, double-label immunofluorescence, Western blot). The class given is in vivo. Conditions: N171-82Q Tg mice, about 50 mg/kg body wt/day via gavage, two months. As to the method: Three-month old transgenic mice were treated with GTB (about 50 mg/kg body wt/day) via gavage. Control Huntington's disease mice received only 100 μl 0.5% methylcellulose as vehicle. After two months of treatment, microglial activation was monitored in striatal sections by DAB staining (FIG. 3A) and double-label immunofluorescence (FIG. 3B). The results shown in FIGS. 3A-3G represent an analysis of six mice per group.
FIG. 3D depicts the Mean Fluorescence Intensity (MFI) of iNOS in control mice (nTg), untreated N171-82Q mice and GTB treated N171-82Q mice. FIG. 3E is the western blot for Iba-1 and iNOS and FIGS. 3F and 3G are a quantitative analysis of the western blot shown in FIG. 3E.
(§1) As evident from Iba-1 immunostaining as well as Iba-1 Western blot, the inventor found microgliosis in the striatum (FIG. 3) and cortex (FIG. 4) of untreated N171-82Q Tg mice. Activated microglia also express inducible nitric oxide synthase (iNOS).

Another assay has as its system astroglial activation. As to the kind of experiment: Astroglial activation in striatum and cortex (GFAP DAB staining). The class given is in vivo. Conditions: N171-82Q Tg mice, about 50 mg/kg body wt/day via gavage, two months. Here is the method:
Three-month old transgenic (Tg) mice were treated with glyceryl tribenzoate (about 50 mg/kg body wt/day) via gavage. Control Huntington's disease mice received only 100 μl 0.5% methylcellulose as vehicle. After two months of treatment, astroglial activation was monitored in striatal (FIG. 5A) and cortical (FIG. 5B) sections by DAB staining. Further, the number of glial fibrillary acidic protein (GFAP) (+)ve cells were counted in two striatal (FIG. 5C) and cortical (FIG. 5D) sections of each of six mice per group.
Since astroglia are the major cell type in the CNS, any contribution from this cell type would be significant. Therefore, the inventor also monitored astrogliosis in the CNS of N171-82Q Tg mice.

Assay [4] deals with microglial activation. As to the kind of experiment: Microglial activation in cortex (Iba-1 DAB staining, double-label immunofluorescence, Western blot). The following applies: N171-82Q Tg mice, about 50 mg/kg body wt/day via gavage, two months. The class given is in vivo. Here is the method: Three-month old transgenic (Tg) mice were treated with glyceryl tribenzoate (about 50 mg/kg body wt/day) via gavage. Control Huntington's disease mice received only 100 μl 0.5% methylcellulose as vehicle. After two months of treatment, microglial activation was monitored in cortical sections by DAB staining (FIG. 4A) and double-label immunofluorescence (FIG. 4B). The results shown in FIGS. 4A-4B represent an analysis of six mice per group.
FIG. 4D depicts the Mean Fluorescence Intensity (MFI) of iNOS in control mice (nTg), untreated N171-82Q mice and GTB treated N171-82Q mice. FIG. 4E is the western blot for Iba-1 and iNOS and FIGS. 4F and 4G are a quantitative analysis of the western blot shown in FIG. 4E.
as §1

Assay [5] relates to interleukin-6 (IL-6) and IL-1β. The assay is described as follows: Serum proinflammatory cytokines by sandwich ELISA. The following applies: N171-82Q mice, 50 mg/kg body wt/d via gavage, 1 month. The format is in vivo. As to the method:
Three-month old Tg mice (n=3 in each group) were treated with GTB (50 mg/kg body wt/d) mixed with 100 μl 0.5% methylcellulose via gavage. Therefore, control HD mice received only 100 μl 0.5% methylcellulose as vehicle. After 1 month of treatment, levels of interleukin-6 (IL-6) and IL-1β were measured in serum by sandwich ELISA.
Results are mean+SEM of three mice per group. *p<0.05; ***p<0.001.
A general note: In an ELISA, binding on a coated surface is turned into a signal by an enzyme label.

The subject of assay [6] is multiple sclerosis (MS) in mice. The following applies: cited from earlier work.
Another assay relates to DJ-1. The following applies: astrocytes and neurons; cited from earlier work.
The subject of the next assay is BDNF and NT-3. The following applies: brain cells; cited from earlier work.

With `O=C(OCC(COC(=O)c1ccccc1)OC(=O)c1ccccc1)c1ccccc1` [glyceryl tribenzoate, 2,3-dibenzoyloxypropyl benzoate], the “348 kDa band of aggregated HTT in the cortex” value in assay [1] (Western blotting) is on record as “inhibited”. Moreover, in [1] (immunohistochemistry), the “HTT inclusion in the cortex” value is given as “significant reduction” and the “HTT inclusion in the striatum” value is given as “significant reduction”. Moreover, the velocity entry in assay [2] (FIG. 1A) was “markedly improved”. For the same molecule, in [2] (FIG. 1B), the total distance entry is “markedly improved”. The moving frequency result in assay [2] (FIG. 1C) was “markedly improved”. The cumulative duration result in assay [2] (FIG. 1D) was “markedly improved”. For the same molecule, the rotorod performance result in [2] (FIG. 1E) is recorded as “markedly improved”. Further, in the assay with microglial activation [3], the “expression of iNOS in striatum” value is “significantly inhibited”. Besides, in the assay with microglial activation [3] (Iba-1), the microgliosis in striatum result is given as “significantly inhibited”. Besides, the “astrogliosis in the CNS (GFAP, striatum and cortex)” value with astroglial activation is listed as “reduced”. Also, in the assay with microglial activation [4], the “expression of iNOS in cortex” value was “significantly inhibited”. The microgliosis in cortex entry in the assay on microglial activation [4] (Iba-1) was “significantly inhibited”. For the same molecule, in [5], the “level of IL-1β in serum” value is “significantly decreases” and the “level of IL-6 in serum” value is listed as “significantly decreases”.
For the molecule `O=C([O-])c1ccccc1.[Na+]` [sodium benzoate], in assay [6], the “disease process of multiple sclerosis (MS)” value is recorded as “suppresses”. Besides, in the assay on DJ-1, the DJ-1 protein entry was “up-regulates”. Besides, in the assay on BDNF and NT-3, the “production of BDNF” value is “increases” and the “production of NT-3” value is on record as “increases”.

(Values after patent publication US12514842B2, “Use of a benzoate containing composition to treat neurodegenerative disorders” (Rush University Medical Center, priority 2019, dated 2026).)
